Results published in US20060030623A1, “Agent for the treatment or prevention of diabetes, obesity or arteriosclerosis” (priority 2004, published 2006).

Columns and labels:
[1] = Antidiabetic effect: plasma parameters in KKAy mice after 14 days of Compound (1) in diet; type: in vivo, mouse (male KKAy, genetically diabetic, insulin-resistant); details: blood on day 15; for Free fatty acid / Insulin / Neutral fat: plasma
Description: Male KKAy mice (Clea Japan, Inc.) aged 7 weeks which are genetically diabetic (insulin-resistant) were used in the test. Blood was previously collected from the orbital venous plexus of animals acclimated to feeding with normal powdered diet (CRF-1, Oriental Yeast, Co., Ltd.), and then the animals were grouped into 5 groups containing 6 animals each so that there might be no intergroup difference with respect to plasma parameters (neutral fat value, free fatty acid value, insulin value, blood sugar level). Compound (1) was added to the powdered diet so that the concentration in the diet might be 1, 3, 10, and 30 mg/kg/day. The animals were allowed to take the diet ad libitum for 14 days, and blood was collected again from the orbital venous plexus in the morning on day 15 for the measurement of the above-mentioned plasma parameters.

[2] = Anti-obesity effect: body weight and gain in rabbits on high fat diet; type: in vivo, Japanese white rabbits; details: high fat diet restricted to 100 g/day, after 12 weeks
Description: Japanese white rabbits (Kitayama Labes., Co Ltd.) aged 9 weeks were used in the test. Blood was collected from the auricular artery of animals acclimated to feeding with high fat diet (RC-4 containing 0.3% cholesterol and 3% peanut oil, supplied by Oriental Yeast, Co., Ltd.), and then the animals were grouped into 4 groups containing 12 animals each so that there might be no intergroup difference with respect to body weight and plasma parameters (neutral fat value, total cholesterol value, HDL cholesterol value). Compound (1) was added to the high fat diet so that the intake of Compound (1) might be 3, 10, and 30 mg/kg/100 g diet/day. The animals were given the diet restricted to 100 g diet/day for 12 weeks, and body weight and its gain were determined after the 12 weeks.

[3] = Visceral fat-decreasing effect: fat weight by X ray CT in rats on high fat diet; type: in vivo; details: SD rats, 35% (w/w) high fat diet with 0.029% (w/w) Compound (1), 3 months
Description: SD rats (Charles River Japan, Inc.) aged 8 weeks were used in the test. Animals acclimated to feeding with 35% (w/w) high fat diet for 1 week were grouped into 2 groups, i.e. a control group and a group treated with Compound (1), for the test. Animals in the control group received the 35% (w/w) high fat diet, and those in the Compound (1) group received the diet prepared by adding Compound (1) to 0.029% (w/w) of the 35% (w/w) high fat diet, for 3 months. Tap water was available ad libitum to the animals in the test.
Fat weight was determined 3 months later with an X ray CT scanner for laboratory animals (Aloka).

[4] = Anti-arteriosclerosis effect: lipid-stained area of aorta in rabbits on high fat diet; type: in vivo, Japanese white rabbits; details: rabbit aorta, lipid stain, high fat diet 100 g/day, 12 weeks
Description: Japanese white rabbits (Kitayama Labes., Co Ltd.) aged 9 weeks were used in the test. Blood was collected from the auricular artery of animals acclimated to feeding with high fat diet (RC-4 containing 0.3% cholesterol and 3% peanut oil, Oriental Yeast, Co., Ltd.), and then the animals were grouped into 4 groups containing 12 animals each so that there might be no intergroup difference with respect to body weight and parameters in plasma (neutral fat value, total cholesterol value, HDL cholesterol value). Compound (1) was added to the high fat diet so that the intake of Compound (1) might be 3, 10, and 30 mg/kg/100 g diet/day. The animals were allowed to take the diet restricted to 100 g diet/day for 12 weeks, lipid of the aorta was stained, and the stained region was defined as the arteriosclerotic region. The percentage of area of the arteriosclerotic region was calculated according to the equation below.

Solubility in water = type: physicochemical; details: general statement, no test described

CCOC(=O)C(COC(=O)Cc1ccc(NC(=O)c2ccccc2-c2ccc(C(F)(F)F)cc2)c(C(=O)N(C)C)c1)(C(=O)OCC)c1ccccc1 [Compound (1), 2-(2-{3-dimethylcarbamoyl-4-[(4′-trifluoromethyl-biphenyl-2-carbonyl)amino]phenyl}acetoxymethyl)-2-phenylmalonic acid diethyl ester] gave a Blood sugar ([1]; 1 mg/kg/day in diet) of 413 ± 34.9 mg/dL, a Blood sugar ([1]; 3 mg/kg/day in diet) of 516 ± 14.9 mg/dL and a Blood sugar ([1]; 10 mg/kg/day in diet) of 405 ± 36.8 mg/dL. For the same compound, the Blood sugar ([1]; 30 mg/kg/day in diet) was 331 ± 39.6 mg/dL, the Free fatty acid ([1]; 1 mg/kg/day in diet) was 353 ± 15.9 µEq/l and the Insulin ([1]; 1 mg/kg/day in diet) was 117 ± 14.0 ng/mL. For the same compound, the Neutral fat ([1]; 1 mg/kg/day in diet) was 676 ± 57.2 mg/dL, the Free fatty acid ([1]; 3 mg/kg/day in diet) was 293 ± 11.7 µEq/l and the Insulin ([1]; 3 mg/kg/day in diet) was 103 ± 10.5 ng/mL. It also gave a Neutral fat ([1]; 3 mg/kg/day in diet) of 716 ± 79.9 mg/dL, a Free fatty acid ([1]; 10 mg/kg/day in diet) of 235 ± 24.9 µEq/l and an Insulin ([1]; 10 mg/kg/day in diet) of 102 ± 11.3 ng/mL. It also gave a Neutral fat ([1]; 10 mg/kg/day in diet) of 545 ± 53.1 mg/dL, a Free fatty acid ([1]; 30 mg/kg/day in diet) of 171 ± 17.4 µEq/l and an Insulin ([1]; 30 mg/kg/day in diet) of 67 ± 10.4 ng/mL. The Neutral fat ([1]; 30 mg/kg/day in diet) was 298 ± 21.0 mg/dL, the Body weight ([2]; 3 mg/kg/day) was 3122.1 g and the Body weight gain ([2]; 3 mg/kg/day) was 1176.0 g. For the same compound, the Body weight ([2]; 10 mg/kg/day) was 2997.1 g, the Body weight gain ([2]; 10 mg/kg/day) was 1065.9 g and the Body weight ([2]; 30 mg/kg/day) was 2969.0 g. The Body weight gain ([2]; 30 mg/kg/day) was 1025.4 g, the Muscle weight [3] was 204.4 g and the Subcutaneous fat weight [3] was 14.9 g. For the same compound, the Visceral fat weight [3] was 28.8 g, the “Percentage of area of arteriosclerotic region” value (“Percentage” below) ([4]; 3 mg/kg/day) was 28.4% and the “Percentage” value ([4]; 10 mg/kg/day) was 7.7%. The “Percentage” value ([4]; 30 mg/kg/day) was 0.15% and the Solubility in water (Solubility in water) was “slightly soluble or insoluble in water”.
